Source: ChEMBL document CHEMBL4477252, “Optimization of microtubule affinity regulating kinase (MARK) inhibitors with improved physical properties” (Bioorg Med Chem Lett, 2016)

Legend:
Aurora kinase B = Aurora kinase B (Homo sapiens, UniProt Q96GD4); experiment: Inhibition of full-length recombinant human His-tagged AURKB expressed in baculovirus expression system by LanthaScreen assay
[1] = target: Serine/threonine-protein kinase MRCK alpha (Homo sapiens, UniProt Q5VT25); experiment: Inhibition of recombinant human His-tagged CDC42BPA catalytic domain expressed in baculovirus expression system by Z'-LYTE assay
Chain of Serine/threonine-protein kinase MRCK alpha (Q5VT25 whole entry, the tested form may be a part): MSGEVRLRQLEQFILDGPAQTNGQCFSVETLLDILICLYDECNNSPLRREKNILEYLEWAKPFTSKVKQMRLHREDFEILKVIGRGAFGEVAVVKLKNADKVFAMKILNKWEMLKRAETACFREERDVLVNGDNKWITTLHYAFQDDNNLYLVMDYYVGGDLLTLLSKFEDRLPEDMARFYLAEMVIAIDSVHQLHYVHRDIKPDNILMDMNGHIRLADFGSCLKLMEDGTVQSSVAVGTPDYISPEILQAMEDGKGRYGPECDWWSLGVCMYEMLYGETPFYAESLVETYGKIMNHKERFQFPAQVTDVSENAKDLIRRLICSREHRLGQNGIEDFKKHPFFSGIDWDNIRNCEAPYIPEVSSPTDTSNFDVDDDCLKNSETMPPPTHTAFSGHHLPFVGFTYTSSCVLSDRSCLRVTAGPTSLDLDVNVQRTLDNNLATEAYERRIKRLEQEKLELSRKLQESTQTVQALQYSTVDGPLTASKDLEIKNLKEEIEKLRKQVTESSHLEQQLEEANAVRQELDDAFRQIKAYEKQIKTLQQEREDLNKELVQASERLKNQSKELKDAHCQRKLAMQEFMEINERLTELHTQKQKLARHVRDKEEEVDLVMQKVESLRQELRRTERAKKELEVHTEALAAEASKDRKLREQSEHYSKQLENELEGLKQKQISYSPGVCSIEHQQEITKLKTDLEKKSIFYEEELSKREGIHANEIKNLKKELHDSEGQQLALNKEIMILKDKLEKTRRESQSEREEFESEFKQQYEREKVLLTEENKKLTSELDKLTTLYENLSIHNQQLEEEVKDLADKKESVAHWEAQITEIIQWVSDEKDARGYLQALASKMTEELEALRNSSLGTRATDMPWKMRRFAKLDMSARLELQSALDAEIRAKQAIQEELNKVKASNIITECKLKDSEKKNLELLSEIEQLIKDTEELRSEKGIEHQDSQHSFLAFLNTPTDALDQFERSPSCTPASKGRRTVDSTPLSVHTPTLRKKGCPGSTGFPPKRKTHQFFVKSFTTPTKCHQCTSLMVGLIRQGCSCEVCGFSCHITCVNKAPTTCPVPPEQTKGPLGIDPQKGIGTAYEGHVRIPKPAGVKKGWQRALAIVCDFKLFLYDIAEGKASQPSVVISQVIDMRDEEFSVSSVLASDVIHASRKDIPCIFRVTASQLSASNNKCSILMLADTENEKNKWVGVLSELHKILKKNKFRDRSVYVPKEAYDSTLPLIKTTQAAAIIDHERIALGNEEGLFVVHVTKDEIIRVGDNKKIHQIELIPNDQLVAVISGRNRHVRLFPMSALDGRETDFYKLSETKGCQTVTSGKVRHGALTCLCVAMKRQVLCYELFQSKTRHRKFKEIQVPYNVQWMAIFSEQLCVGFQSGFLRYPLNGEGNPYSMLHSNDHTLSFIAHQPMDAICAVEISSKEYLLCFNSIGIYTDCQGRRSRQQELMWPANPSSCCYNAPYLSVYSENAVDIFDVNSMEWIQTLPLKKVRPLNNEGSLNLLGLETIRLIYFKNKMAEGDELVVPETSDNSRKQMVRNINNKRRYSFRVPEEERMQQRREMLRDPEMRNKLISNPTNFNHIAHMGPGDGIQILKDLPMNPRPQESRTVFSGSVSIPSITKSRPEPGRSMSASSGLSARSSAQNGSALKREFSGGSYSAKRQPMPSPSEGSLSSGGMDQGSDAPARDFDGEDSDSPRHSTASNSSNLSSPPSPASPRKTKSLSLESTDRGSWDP

[2] = target: Dual specificity protein kinase CLK2 (Homo sapiens, UniProt P49760); experiment: Inhibition of recombinant human GST-tagged CLK2 catalytic domain expressed in baculovirus expression system by Z'-LYTE assay
Chain of Dual specificity protein kinase CLK2 (P49760 whole entry, the tested form may be a part): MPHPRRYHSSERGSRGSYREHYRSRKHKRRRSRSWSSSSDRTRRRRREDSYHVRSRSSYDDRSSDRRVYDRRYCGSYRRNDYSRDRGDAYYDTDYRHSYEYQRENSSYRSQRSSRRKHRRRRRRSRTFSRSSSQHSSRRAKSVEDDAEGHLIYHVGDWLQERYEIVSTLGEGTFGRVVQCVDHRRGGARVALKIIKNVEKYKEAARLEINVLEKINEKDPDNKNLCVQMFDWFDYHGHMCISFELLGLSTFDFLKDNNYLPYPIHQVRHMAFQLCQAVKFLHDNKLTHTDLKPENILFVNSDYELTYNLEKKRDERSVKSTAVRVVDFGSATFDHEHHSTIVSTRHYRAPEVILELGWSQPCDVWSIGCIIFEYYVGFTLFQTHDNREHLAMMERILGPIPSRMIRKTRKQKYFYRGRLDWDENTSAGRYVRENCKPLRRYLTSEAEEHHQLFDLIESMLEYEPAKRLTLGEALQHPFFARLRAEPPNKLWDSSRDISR

[3] = target: T1, Receptor-type tyrosine-protein kinase FLT3 (Homo sapiens, UniProt P36888); experiment: Inhibition of recombinant human His-tagged cytoplasmic FLT3 expressed in baculovirus expression system by Z'-LYTE assay
T1 sequence (P36888 whole entry): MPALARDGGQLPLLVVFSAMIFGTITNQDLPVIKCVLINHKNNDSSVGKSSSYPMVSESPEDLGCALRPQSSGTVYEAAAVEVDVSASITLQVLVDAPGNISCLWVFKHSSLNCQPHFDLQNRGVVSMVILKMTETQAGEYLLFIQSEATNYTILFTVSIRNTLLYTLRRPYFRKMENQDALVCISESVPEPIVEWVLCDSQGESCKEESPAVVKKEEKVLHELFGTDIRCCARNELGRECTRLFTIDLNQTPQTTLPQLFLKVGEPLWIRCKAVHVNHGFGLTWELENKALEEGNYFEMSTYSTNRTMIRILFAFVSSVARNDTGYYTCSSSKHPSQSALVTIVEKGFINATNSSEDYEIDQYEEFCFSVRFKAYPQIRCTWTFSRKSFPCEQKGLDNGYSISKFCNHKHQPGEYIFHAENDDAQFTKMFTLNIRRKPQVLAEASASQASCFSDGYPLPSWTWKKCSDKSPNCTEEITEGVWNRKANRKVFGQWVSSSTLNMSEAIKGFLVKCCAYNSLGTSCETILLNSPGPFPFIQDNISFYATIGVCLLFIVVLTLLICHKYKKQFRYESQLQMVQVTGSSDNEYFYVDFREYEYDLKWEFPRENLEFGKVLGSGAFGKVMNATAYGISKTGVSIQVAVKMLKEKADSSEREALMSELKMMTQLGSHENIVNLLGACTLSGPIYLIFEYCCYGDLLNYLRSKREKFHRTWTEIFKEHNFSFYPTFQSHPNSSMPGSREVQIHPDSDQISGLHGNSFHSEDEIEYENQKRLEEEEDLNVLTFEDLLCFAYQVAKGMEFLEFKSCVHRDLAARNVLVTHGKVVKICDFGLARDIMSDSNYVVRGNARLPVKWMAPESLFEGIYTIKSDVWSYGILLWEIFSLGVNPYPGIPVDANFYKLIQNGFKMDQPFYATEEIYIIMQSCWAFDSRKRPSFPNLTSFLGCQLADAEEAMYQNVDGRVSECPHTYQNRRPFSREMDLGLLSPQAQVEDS

Insulin receptor = Insulin receptor (Homo sapiens, UniProt P06213); experiment: Inhibition of recombinant human GST-tagged cytoplasmic INSR (1011 to 1382 residues) expressed in baculovirus expression system by Z'-LYTE assay
Chain of Insulin receptor (P06213 28-758 limits assumed): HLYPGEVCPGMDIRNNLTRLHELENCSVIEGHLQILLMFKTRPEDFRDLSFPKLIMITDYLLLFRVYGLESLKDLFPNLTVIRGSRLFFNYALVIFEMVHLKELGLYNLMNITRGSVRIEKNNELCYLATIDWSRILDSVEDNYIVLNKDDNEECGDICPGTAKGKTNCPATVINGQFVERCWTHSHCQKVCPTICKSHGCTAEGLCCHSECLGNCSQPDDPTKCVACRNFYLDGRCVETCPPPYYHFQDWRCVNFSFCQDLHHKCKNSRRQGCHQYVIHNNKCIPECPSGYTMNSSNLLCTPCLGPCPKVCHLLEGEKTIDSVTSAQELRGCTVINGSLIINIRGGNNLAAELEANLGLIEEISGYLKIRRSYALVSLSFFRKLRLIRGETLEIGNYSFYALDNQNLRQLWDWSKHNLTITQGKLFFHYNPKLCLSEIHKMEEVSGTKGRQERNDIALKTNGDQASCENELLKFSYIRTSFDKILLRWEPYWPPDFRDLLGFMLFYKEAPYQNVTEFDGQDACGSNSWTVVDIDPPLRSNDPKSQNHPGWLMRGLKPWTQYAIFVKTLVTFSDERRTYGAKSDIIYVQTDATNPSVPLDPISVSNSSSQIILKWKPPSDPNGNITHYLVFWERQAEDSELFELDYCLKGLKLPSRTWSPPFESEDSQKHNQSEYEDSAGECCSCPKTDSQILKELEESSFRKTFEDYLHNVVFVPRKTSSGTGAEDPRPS
Chain of Insulin receptor (P06213 763-1382 limits assumed): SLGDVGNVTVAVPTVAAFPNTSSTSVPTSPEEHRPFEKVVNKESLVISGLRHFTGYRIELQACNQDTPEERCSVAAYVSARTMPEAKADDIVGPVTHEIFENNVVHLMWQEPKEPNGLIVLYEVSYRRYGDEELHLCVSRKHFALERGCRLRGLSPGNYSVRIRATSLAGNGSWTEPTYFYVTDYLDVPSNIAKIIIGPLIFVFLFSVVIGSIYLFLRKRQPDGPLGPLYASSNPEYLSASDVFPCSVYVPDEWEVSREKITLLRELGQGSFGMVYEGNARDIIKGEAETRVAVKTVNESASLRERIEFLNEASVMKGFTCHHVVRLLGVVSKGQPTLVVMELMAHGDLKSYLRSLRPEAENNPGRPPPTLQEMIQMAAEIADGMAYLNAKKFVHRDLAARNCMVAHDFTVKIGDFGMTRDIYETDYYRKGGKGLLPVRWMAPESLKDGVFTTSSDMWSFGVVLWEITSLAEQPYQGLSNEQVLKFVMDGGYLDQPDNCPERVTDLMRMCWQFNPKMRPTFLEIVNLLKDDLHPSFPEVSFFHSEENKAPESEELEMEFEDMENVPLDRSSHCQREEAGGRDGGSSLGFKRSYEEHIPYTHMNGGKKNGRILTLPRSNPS

[4] = target: T2, Serine/threonine-protein kinase Nek2 (Homo sapiens, UniProt P51955); experiment: Inhibition of full-length recombinant human His-tagged NEK2 expressed in baculovirus expression system by Z'-LYTE assay
T2 sequence (P51955 whole entry): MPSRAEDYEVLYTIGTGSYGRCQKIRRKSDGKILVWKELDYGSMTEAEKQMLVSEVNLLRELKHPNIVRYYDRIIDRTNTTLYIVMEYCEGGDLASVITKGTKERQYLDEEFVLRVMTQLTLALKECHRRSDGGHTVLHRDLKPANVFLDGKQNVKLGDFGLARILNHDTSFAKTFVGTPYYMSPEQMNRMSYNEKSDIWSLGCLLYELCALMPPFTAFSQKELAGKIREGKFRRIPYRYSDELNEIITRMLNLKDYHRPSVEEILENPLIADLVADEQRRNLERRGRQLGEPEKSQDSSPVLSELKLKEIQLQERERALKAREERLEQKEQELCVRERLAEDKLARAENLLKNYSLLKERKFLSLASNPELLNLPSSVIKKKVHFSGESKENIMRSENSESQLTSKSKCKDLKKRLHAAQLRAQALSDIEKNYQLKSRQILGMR

[5] = target: Serine/threonine-protein kinase PLK1 (Homo sapiens, UniProt P53350); experiment: Inhibition of full-length recombinant human His-tagged PLK1 expressed in baculovirus expression system by Z'-LYTE assay
Chain of Serine/threonine-protein kinase PLK1 (P53350 whole entry): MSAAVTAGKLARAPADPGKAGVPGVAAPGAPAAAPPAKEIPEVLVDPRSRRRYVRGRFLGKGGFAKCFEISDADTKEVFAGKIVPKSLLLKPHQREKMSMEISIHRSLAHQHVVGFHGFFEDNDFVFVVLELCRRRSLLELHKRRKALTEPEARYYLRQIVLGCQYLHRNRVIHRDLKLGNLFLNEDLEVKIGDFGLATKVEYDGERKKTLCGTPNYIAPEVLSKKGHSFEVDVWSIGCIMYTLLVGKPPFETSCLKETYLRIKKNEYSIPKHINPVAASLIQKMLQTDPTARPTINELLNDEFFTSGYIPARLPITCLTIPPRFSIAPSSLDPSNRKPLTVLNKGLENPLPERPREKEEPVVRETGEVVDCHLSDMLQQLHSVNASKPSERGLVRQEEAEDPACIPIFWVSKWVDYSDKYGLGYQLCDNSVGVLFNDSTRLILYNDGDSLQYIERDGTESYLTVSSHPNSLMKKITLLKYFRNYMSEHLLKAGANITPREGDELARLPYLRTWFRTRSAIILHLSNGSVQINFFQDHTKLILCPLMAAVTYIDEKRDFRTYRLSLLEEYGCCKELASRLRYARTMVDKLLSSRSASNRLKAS

[6] = target: T3, Protein kinase C zeta type (Homo sapiens, UniProt Q05513); experiment: Inhibition of full-length recombinant human PRKCZ expressed in baculovirus expression system by Z'-LYTE assay
T3 sequence (Q05513 whole entry): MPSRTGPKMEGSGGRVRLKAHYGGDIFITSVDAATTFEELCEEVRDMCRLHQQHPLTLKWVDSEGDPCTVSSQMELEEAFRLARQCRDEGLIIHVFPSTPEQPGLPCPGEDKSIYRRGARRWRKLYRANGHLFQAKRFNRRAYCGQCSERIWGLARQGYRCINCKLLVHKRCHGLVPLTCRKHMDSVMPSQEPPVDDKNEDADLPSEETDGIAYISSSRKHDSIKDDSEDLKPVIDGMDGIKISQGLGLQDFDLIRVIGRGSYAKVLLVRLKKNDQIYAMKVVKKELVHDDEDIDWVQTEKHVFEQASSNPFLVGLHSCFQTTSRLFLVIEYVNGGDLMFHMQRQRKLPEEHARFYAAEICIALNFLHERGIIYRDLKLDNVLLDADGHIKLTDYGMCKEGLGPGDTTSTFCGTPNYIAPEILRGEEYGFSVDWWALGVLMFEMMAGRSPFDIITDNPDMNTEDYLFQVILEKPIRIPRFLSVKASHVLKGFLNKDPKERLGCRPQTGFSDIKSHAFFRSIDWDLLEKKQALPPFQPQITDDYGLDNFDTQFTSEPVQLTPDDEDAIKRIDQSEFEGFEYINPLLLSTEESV

[7] = target: Protein-tyrosine kinase 6 (Homo sapiens, UniProt Q13882); experiment: Inhibition of full-length recombinant human His-tagged PTK6 expressed in baculovirus expression system by Z'-LYTE assay
Chain of Protein-tyrosine kinase 6 (Q13882 whole entry): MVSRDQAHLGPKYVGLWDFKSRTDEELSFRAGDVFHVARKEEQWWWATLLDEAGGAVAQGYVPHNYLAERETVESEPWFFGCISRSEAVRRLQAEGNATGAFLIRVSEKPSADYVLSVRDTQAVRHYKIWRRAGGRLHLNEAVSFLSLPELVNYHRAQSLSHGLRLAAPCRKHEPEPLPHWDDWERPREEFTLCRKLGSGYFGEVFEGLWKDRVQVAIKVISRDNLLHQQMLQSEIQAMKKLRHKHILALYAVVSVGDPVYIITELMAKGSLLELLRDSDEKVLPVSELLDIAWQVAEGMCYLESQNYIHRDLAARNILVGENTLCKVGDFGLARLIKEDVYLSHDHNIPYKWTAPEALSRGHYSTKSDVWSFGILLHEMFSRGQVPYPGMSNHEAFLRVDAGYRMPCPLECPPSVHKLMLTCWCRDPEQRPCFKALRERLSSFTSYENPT

Chain of Aurora kinase B (Q96GD4 whole entry, the tested form may be a part): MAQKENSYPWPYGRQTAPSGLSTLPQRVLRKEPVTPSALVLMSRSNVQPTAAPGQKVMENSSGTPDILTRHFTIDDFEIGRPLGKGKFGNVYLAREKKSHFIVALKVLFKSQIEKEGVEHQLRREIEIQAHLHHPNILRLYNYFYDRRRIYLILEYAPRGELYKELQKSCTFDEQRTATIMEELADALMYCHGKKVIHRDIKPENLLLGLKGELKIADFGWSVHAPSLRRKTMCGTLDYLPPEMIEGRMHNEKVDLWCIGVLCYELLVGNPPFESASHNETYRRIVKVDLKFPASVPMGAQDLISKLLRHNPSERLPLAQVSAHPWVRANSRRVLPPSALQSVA

SMILES | IC50 (Aurora kinase B) [nM] | IC50 [1] [nM] | IC50 [2] [nM] | IC50 [3] [nM] | IC50 (Insulin receptor) [nM] | IC50 [4] [nM] | IC50 [5] [nM] | IC50 [6] [nM] | IC50 [7] [nM]
O=C(NCC(F)(F)F)c1cc(-c2cnn3cc(-c4ccc(OCCN5CCCCC5)cc4)cnc23)cs1 | 33 | 1200 | < 10 | < 10 | 55000 | 16000 | 55000 | 1900 | 1700
Cn1cc(-c2cnc3c(-c4csc(C(=O)NCC(F)(F)F)c4)cnn3c2)cn1 | < 10 | 9200 | < 10 | < 10 | > 100000 | > 100000 | > 100000 | 1800 | > 100000
Cn1cc(-c2cnc3c(-c4csc(C(=O)N[C@@H]5CCCC[C@@H]5N)c4)cnn3c2)cn1 (racemic) | 28 | 72 | 14 | 1.9 | > 10000 | 950 | > 10000 | 40 | 390
Cc1sc(C(=O)N[C@@H]2[C@H](N)CCCC2(F)F)cc1-c1cnn2cc(Cl)cnc12 | 4600 | 1000 | 110 | 580 | > 100000 | 13000 | > 100000 | 1100 | > 100000
